Source: BindingDB's records for doi:10.1021/acs.jmedchem.1c00920 (Astrazeneca, 2021)

Target: Tyrosine-protein kinase Mer (Homo sapiens) (UniProt Q12866)
Test: Inhibition of FLAG-tagged MER (unknown origin) transfected in Cos-7cells assessed as phosphorylation level incubated for 1 hr by ELISA

Tyrosine-protein kinase Mer (Homo sapiens), sequence (Q12866 whole entry, looked up): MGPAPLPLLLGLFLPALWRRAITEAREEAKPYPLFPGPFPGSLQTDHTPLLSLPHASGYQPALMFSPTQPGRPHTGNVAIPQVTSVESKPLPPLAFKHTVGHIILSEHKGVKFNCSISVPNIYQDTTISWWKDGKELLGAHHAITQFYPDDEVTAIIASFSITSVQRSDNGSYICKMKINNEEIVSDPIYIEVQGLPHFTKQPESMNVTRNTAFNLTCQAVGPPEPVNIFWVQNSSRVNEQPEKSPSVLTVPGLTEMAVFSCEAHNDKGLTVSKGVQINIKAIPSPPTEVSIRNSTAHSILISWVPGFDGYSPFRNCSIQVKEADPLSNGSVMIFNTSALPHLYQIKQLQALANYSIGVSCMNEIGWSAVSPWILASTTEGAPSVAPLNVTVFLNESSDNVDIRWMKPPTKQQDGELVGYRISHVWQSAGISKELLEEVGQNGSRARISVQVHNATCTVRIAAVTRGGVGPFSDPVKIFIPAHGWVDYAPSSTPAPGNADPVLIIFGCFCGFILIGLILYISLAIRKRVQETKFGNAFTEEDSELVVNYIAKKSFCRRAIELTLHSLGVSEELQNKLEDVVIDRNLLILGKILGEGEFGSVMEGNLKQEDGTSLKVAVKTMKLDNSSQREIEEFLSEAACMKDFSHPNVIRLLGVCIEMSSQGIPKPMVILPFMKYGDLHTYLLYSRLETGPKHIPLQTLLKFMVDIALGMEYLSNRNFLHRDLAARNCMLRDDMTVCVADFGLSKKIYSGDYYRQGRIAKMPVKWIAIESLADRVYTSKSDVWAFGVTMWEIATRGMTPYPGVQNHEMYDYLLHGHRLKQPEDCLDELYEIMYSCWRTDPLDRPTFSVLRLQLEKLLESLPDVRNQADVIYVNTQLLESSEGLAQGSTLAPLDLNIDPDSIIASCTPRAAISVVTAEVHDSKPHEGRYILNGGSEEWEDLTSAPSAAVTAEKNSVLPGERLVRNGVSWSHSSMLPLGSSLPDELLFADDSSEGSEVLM

`Cc1nn(C)c(C)c1-c1ccc(-c2nnc(N(C)Cc3ccc4nccn4c3)o2)cc1` was tested. Which IC50 did it give?
The IC50 was 200 nM.

`Cc1nn(C)c(C)c1-c1ccc(-c2nnc(N(C)Cc3ccc4nccn4c3)o2)c(F)c1` was tested. Which IC50 did it give?
The IC50 was 316 nM.

With `COc1cc(-c2c(C)nn(C)c2C)ccc1-c1nnc(N(C)Cc2ccc3nccn3c2)o1` as the compound, how does the IC50 read?
Its IC50 is 501 nM.

Which IC50 does the source give for `Cc1cc(-c2c(C)nn(C)c2C)ccc1-c1nnc(N(C)Cc2ccc3nccn3c2)o1` here?
Its IC50 is 32 nM.

For `Cc1cc(-c2c(C)nn(C)c2C)cnc1-c1nnc(N(C)Cc2ccc3nccn3c2)o1`, which IC50 is on record?
Its IC50 is 794 nM.

With `Cc1nc(-c2c(C)nn(C)c2C)ccc1-c1nnc(N(C)Cc2ccc3nccn3c2)o1` as the compound, how does the IC50 read?
The IC50 was 1580 nM.

How did the IC50 turn out when `Cc1cc(-c2c(C)n[nH]c2C)ccc1-c1nnc(N(C)Cc2ccc3nccn3c2)o1` was run?
The IC50 was 2510 nM.

For `Cc1cc(-c2cnn(C)c2C)ccc1-c1nnc(N(C)Cc2ccc3nccn3c2)o1`, which IC50 is on record?
The IC50 was 79 nM.

How did the IC50 turn out when `Cc1cc(-c2c(C#N)nn(C)c2C)ccc1-c1nnc(N(C)Cc2ccc3nccn3c2)o1` was run?
The IC50 was 316 nM.

How did the IC50 turn out when `Cc1cc(-c2c(C)nc(C)n2C)ccc1-c1nnc(N(C)Cc2ccc3nccn3c2)o1` was run?
Its IC50 is 501 nM.

How did the IC50 turn out when `Cc1cc(-c2c(C)nn(C)c2C)ccc1-c1nnc(N(C)Cc2ccc3ncc(C(=O)N(C)C)n3c2)o1` was run?
The IC50 was 32 nM.

Which IC50 does the source give for `Cc1cc(-c2c(C)nn(C)c2C)ccc1-c1nnc(N(C)Cc2ccc3ncc(-c4ccccc4)n3c2)o1` here?
The IC50 was 32 nM.

`Cc1cc(-c2c(C)nn(C)c2C)ccc1-c1nnc(N(C)Cc2ccc3ncc(-c4cnn(C)c4)n3c2)o1` was tested. Which IC50 did it give?
The IC50 was 13 nM.

`Cc1cc(-c2c(C)nn(C)c2C)ccc1-c1nnc(N(C)Cc2ccc3ncc(C4CCN(C)CC4)n3c2)o1` was tested. Which IC50 did it give?
Its IC50 is 251 nM.

How did the IC50 turn out when `Cc1cc(-c2c(C)nn(C)c2C)ccc1-c1nnc(N(C)Cc2ccc3ncc(-c4cnn(CCN(C)C)c4)n3c2)o1` was run?
Its IC50 is 20 nM.

How did the IC50 turn out when `Cc1cc(-c2c(C)nn(C)c2C)cnc1-c1nnc(N(C)Cc2ccc3ncc(-c4cnn(CCN(C)C)c4)n3c2)o1` was run?
The IC50 was 200 nM.

For `Cc1cc(-c2c(C)nn(C)c2C)cnc1-c1nnc(N(C)Cc2ccc3ncc(-c4ccc(CN(C)C)cc4)n3c2)o1`, which IC50 is on record?
The IC50 was 16 nM.

With `Cc1cc(-c2c(C)nn(C)c2C)cnc1-c1nnc(N(C)Cc2ccc3ncc(-c4cccc(CN(C)C)c4)n3c2)o1` as the compound, how does the IC50 read?
The IC50 was 32 nM.

With `Cc1cc(-c2c(C)nn(C)c2C)cnc1-c1nnc(N(C)Cc2ccc3ncc(-c4ccc(CN(C)C)nc4)n3c2)o1` as the compound, how does the IC50 read?
Its IC50 is 100 nM.

For `Cc1cc(-c2c(C)nn(C)c2C)cnc1-c1nnc(N(C)Cc2ccc3ncc(-c4ccc(CN(C)C)cn4)n3c2)o1`, which IC50 is on record?
The IC50 was 13 nM.

How did the IC50 turn out when `CN1CCN(Cc2ccc(-c3ccc(CO[C@H]4CCC[C@@H]4NC(=O)c4cc(-c5cnn(C)c5)cnc4N)cc3)cc2)CC1` [US10125118, Example 172] was run?
Its IC50 is 7.9 nM.
